Consider 1 compound from US20130317096A1, “SYNERGISTIC INTERACTION OF AT LEAST ONE VITAMIN E COMPONENT AND TYROSINASE INHIBITORS FOR DERMATOLOGICAL APPLICATIONS” (Davos Life Science Pte Ltd, priority 2010, published 2013).

One test addresses T1, tyrosinase (Mus musculus, UniProt P11344).
T1 construct: suppression of tyrosinase protein expression in B16 melanoma cells; endogenous in cells; host or cells: B16 melanoma cells
T1 sequence (P11344 19-533): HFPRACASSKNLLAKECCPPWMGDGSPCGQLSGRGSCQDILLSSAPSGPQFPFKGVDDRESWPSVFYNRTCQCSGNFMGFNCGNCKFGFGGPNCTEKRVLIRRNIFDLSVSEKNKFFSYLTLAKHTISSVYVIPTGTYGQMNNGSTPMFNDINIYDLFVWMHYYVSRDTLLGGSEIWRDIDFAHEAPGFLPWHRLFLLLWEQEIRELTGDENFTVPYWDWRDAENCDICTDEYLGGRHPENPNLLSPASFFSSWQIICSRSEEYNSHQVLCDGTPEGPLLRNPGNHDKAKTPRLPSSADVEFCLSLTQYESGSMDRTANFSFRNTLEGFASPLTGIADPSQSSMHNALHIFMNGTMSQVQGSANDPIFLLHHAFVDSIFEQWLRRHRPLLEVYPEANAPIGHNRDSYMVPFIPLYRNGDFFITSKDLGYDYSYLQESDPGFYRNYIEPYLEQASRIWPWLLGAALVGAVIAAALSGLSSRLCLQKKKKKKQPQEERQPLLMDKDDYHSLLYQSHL
The test can be described thus: Tyrosinase activity of treated B16 melanoma cells (L-DOPA, dopachrome formation). In kind it is cell-based. The note with it: 20 μM; for tyrosinase activity: day 9. As to the method:
At different time points, cells were harvested using trysin-EDTA and the cell pellets were washed once with phosphate-buffered saline (PBS). A sample amount from each compound treatment group was divided into two equal parts. These cell pellets were then stored at −80° C. prior to the measurement of the tyrosinase activity and melanin content.
Harvested cell pellets were homogenized in RIPA buffer (10 mM Tris-HCl [pH 7.5], 1% NP-40, 0.1% sodium deoxycholate, 0.1% SDS, 150 mM sodium chloride, and 1 mM EDTA) with protease inhibitors and placed on ice for 30 min. The supernatants were collected after centrifuging the samples at 15,000 g at 4° C. for 30 min. For every 100 μl of supernatant, 200 μl of 0.3% L-DOPA (Sigma-Aldrich) was added. All samples, including a blank control of RIPA buffer and 0.3% L-DOPA, were incubated at 37° C. for 20 min. The dopachrome formation from each sample was then measured at 475 nm. The absorbance percentage values of the treated groups in comparison to untreated controls were calculated against per μg of the total protein content, which was determined using the DC protein assay (Bio-Rad, Hercules, Calif., USA).

The subject of another test is B16 melanoma cells. Briefly: MTT cell viability assay. The class given is cell-based, mouse. The settings on record: 24 hrs of treatment, increasing dosages. How it is done:
B16 mouse melanoma cells were purchased from (ATCC, Manassas, Va., USA).
The base medium for the cell line was Dulbecco's modified Eagle's medium (DMEM). To make the complete growth medium, fetal bovine serum (final concentration, 10%) was added to the base medium. Tocotrienol (T3) and tocopherol (TP) isomers and the palm tocotrienol-rich fraction (TRF) were purified from a palm fatty acid distillate (PFAD) using molecular distillation and Novasep® equipment (Novasep, Pompey, France). The extraction facility is located in Tuas, Singapore. The PFAD feed was purchased from Kuala Lumpur Kepong Berhad (Kuala Lumpur, Malaysia). The purity of the vitamin E isomers was verified by HPLC and gas chromatography (GC) percentage peak area.
For the cell viability study, 5×10^3 cells re-suspended in 100 μl of medium were plated into each well of a 96-well plate. The cells were then treated with different concentrations of the vitamin-E isomers for 24 hrs. After the treatment, 20 μl of MTT solution (1 mg/ml in PBS; Sigma-Aldrich, St. Louis, Mo., USA) was added to each well and the cells were incubated at 37° C. for 2 hrs. The formazan crystals were then re-suspended in 200 μl of DMSO and the intensity at 595 nm was measured.
For orientation: Tetrazolium dyes change colour on reduction, which living cells bring about.

“Also recorded” adds a separate entry of the source.

On to `CC(C)=CCC/C(C)=C/CC/C(C)=C/CCC1(C)CCc2cc(O)c(C)c(C)c2O1` (stereo not shown) [γ-tocotrienol, 7,8-dimethyltocotrienol], for which the results for the tyrosinase activity entry on tyrosinase (listed as gamma T3) and at tyrosinase (listed as γT3) were “significantly suppressed the activity of tyrosinase on day 9” and “comparable to that treated with 0.05% kojic acid”, respectively. The “tyrosinase activity compared to controls” value on tyrosinase (day 15) is listed as less than 15%. Further, the “B16 melanoma cell viability / proliferation rate” value in the test on B16 melanoma cells is “inhibited the proliferation rate of B16 melanoma cells in a dose-dependent fashion; also recorded: inhibit B16 melanoma cell viability at high concentrations”.
